# Reference: PMC11270734 (ACS Omega, 2024)
# Columns and labels:
# [1] = Cytotoxicity, MTT assay; format: cell-based; conditions: human, HEK-293 cells
# [2] = tested on: chloroquine-sensitive P. falciparum (3D7 strain); format: cell-based; conditions: Plasmodium falciparum, 3D7, 48 h, read-out: MEAN IC50 ± SE
Compound,CC50 at 72 h [1] [µg/mL],IC50 [2] [nM]
O=C(c1ccccc1)N1CCC2(CC1)OOC1(CCCCC1)OO2 [3b],> 100,17.9 ± 1.96
O=C(c1ccccc1)N1CCC2(CC1)OOC1(CCCCCC1)OO2 [3c],> 100,21.9 ± 1.79
O=C(c1ccccc1)N1CCC2(CC1)OOC1(OO2)C2CC3CC(C2)CC1C3 [3d],> 100,7.28 ± 0.57
CC1(C)OOC2(CCN(C(=O)c3ccccc3)CC2)OO1 [3e],> 100,29.9 ± 1.28
CCC1(C)OOC2(CCN(C(=O)c3ccccc3)CC2)OO1 [3f],> 100,42.5 ± 3.04
CCCC1(C)OOC2(CCN(C(=O)c3ccccc3)CC2)OO1 [3g],> 100,43.4 ± 2.38
CC(C)C1(C)OOC2(CCN(C(=O)c3ccccc3)CC2)OO1 [3h],> 100,41.2 ± 2.33
CCCCC1(C)OOC2(CCN(C(=O)c3ccccc3)CC2)OO1 [3j],> 100,17.5 ± 1.24
CC(C)CC1(C)OOC2(CCN(C(=O)c3ccccc3)CC2)OO1 [3k],> 100,18.9 ± 2.12
CCCCCC1(C)OOC2(CCN(C(=O)c3ccccc3)CC2)OO1 [3l],> 100,16.7 ± 1.93
CCC1(CC)OOC2(CCN(C(=O)c3ccccc3)CC2)OO1 [3m],> 100,17.5 ± 1.59
CCCC1(CCC)OOC2(CCN(C(=O)c3ccccc3)CC2)OO1 [3o],> 100,17.3 ± 1.78
CC1(c2ccccc2)OOC2(CCN(C(=O)c3ccccc3)CC2)OO1 [3p],> 100,16.3 ± 0.93
CC1(c2ccc(Cl)cc2)OOC2(CCN(C(=O)c3ccccc3)CC2)OO1 [3q],> 100,11.8 ± 0.8
CC1(c2ccc(C#N)cc2)OOC2(CCN(C(=O)c3ccccc3)CC2)OO1 [3r],> 100,15.7 ± 0.78
O=Cc1ccc(C(=O)N2CCC3(CC2)OOC2(OO3)C3CC4CC(C3)CC2C4)cc1 [3u],> 100,6.35 ± 0.55
"C[C@@H]1CC[C@H]2[C@@H](C)C(=O)O[C@@H]3O[C@@]4(C)CC[C@@H]1[C@]32OO4 [artemisinin, reference compound]",> 100,
